Measurements as given in patent US8030499B2, “1,3-dihydro-2H-indole-2-one compound and pyrrolidine-2-one compound fused with aromatic heterocycle” (Taisho Pharmaceutical Co., Ltd., priority 2005, dated 2011).

target: T1, human V1b receptor (Homo sapiens, UniProt P47901); assay: V1b receptor binding assay ([3H](Arg8)-vasopressin, crude membranes of CHO cells); conditions: 0.1 μmol/L test drug, V1b receptor binding assay; read-out: Rate of inhibition (V1b: % of inhibition)
T1 construct: expressed in transfected cells; host or cells: CHO cells
T1 sequence (P47901 1-424): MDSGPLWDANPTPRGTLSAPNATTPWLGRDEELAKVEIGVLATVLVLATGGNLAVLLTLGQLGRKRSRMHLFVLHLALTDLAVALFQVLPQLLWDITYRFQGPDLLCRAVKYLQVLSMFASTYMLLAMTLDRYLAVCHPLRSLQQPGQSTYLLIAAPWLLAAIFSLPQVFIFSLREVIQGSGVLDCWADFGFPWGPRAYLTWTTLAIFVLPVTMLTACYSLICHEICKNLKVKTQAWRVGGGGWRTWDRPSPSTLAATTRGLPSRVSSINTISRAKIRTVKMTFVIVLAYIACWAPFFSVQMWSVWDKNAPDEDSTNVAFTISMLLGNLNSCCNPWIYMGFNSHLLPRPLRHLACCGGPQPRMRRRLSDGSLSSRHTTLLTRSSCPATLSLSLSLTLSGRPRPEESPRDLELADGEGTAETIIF
Protocol: A summary of the methods is given below.
Each obtained homogenate was centrifuged for 20 minutes at 50,000×g and 4° C., the sediment was resuspended in a 50 mmol/L Tris hydrochloric acid buffer solution (pH7.4, containing 10 mmol/L magnesium chloride and 0.1% bovine serum albumin), which served as a crude membrane preparation. This crude membrane preparation was added with [^3H] (Arg^8) vasopressin (final concentration: 0.1 nmol/L to 0.4 nmol/L), and each test drug (final concentration: 0.1 nmol/L to lμmol/L or 0.01 nmol/L to 0.1 μmol/L) to 22° C. for 90 minutes. After the end of the reaction, the reaction solution was filtrated using a GF/C glass fiber filter, which had been presoaked in 0.3% polyethyleneimine for two hours. After the GF/C glass fiber filter was dried sufficiently, scintillator was added, and the radioactivity on the filter was measured using a liquid scintillation counter. Binding of [^3H] (Arg^8)-vasopressin in the presence of (Arg^8)-vasopressin, in the amounts of 0.1 μmol/L in the V1b receptor binding assay and 5 μmol/L in the V1a and V2 receptor binding assay, were taken as non-specific binding, and the value obtained by subtracting non-specific binding from the total binding in the absence (Arg^8)-vasopressin served as specific binding.
In addition, regarding the V1b receptor binding assay, the value obtained by, subtracting the amount of binding in the presence of 0.1 μmol/L test drug from the total amount of binding, divided by the amount of specific binding, served as the rate of inhibition (% of inhibition) of the test drug at the concentration tested.

| SMILES | inhibition at 0.1 µM [%] |
| --- | --- |
| COc1ccc(S(=O)(=O)N2C(=O)C(N[C@@H](Cc3ccncc3)C(=O)N(C)C)(c3ccccc3OC)c3cc(Cl)ccc32)c(OC(F)(F)F)c1 (single isomer, unassigned) [Example 83] | 72 |
| COc1ccc(S(=O)(=O)N2C(=O)C(N[C@@H](Cc3ccc(O)cc3)C(=O)N(C)C)(c3ccccc3OC)c3cc(Cl)ccc32)c(OC(F)(F)F)c1 (single isomer, unassigned) [Example 86] | 86 |
| COc1ccc(C2(N3CCCC[C@H]3C(=O)N(C)C)C(=O)N(S(=O)(=O)c3ccc(OC)cc3OC(F)(F)F)c3ccc(C)cc32)cc1 (single isomer, unassigned) [Example 96] | 73 |
| COc1ccc(S(=O)(=O)N2C(=O)C(c3cc(OC)ccc3OC)(N3CCCC[C@H]3C(=O)N(C)C)c3cc(Cl)ccc32)c(OC(F)(F)F)c1 (single isomer, unassigned) [Example 117] | 95 |
| COc1ccc(S(=O)(=O)N2C(=O)C(c3cc(C)ccc3OC)(N3C[C@H](O)C[C@H]3C(=O)N(C)C)c3cc(Br)cnc32)c(OC)c1 (single isomer, unassigned) [Example 121] | 47 |
| COc1ccc(S(=O)(=O)N2C(=O)C(c3cc(C)ccc3OC)(N3C[C@H](OC(C)=O)C[C@H]3C(=O)N(C)C)c3cc(Cl)ccc32)c(OC(F)(F)F)c1 (single isomer, unassigned) [Example 137] | 96 |
| COc1ccc(S(=O)(=O)N2C(=O)C(c3cc(C)ccc3OC)(N3C[C@H](OCC#N)C[C@H]3C(=O)N(C)C)c3cc(Cl)ccc32)c(OC(F)(F)F)c1 (single isomer, unassigned) [Example 146] | 94 |

Second part, the compound after the results:

| inhibition at 0.1 µM [%] | SMILES |
| --- | --- |
| 102 | COC(=O)[C@@H]1C[C@@H](O)CN1C1(c2ccccc2OC)C(=O)N(S(=O)(=O)c2ccc(OC)cc2OC(F)(F)F)c2ccc(Cl)cc21 (single isomer, unassigned) [Example 4] |
| 96 | COc1ccc(S(=O)(=O)N2C(=O)C(c3ccccc3OC)(N3C[C@H](F)C[C@H]3C(=O)N(C)C)c3cc(Cl)ccc32)c(OC(F)(F)F)c1 (single isomer, unassigned) [Example 7] |
| 104 | COc1ccc(S(=O)(=O)N2C(=O)C(c3cccc4c3OCC4)(N3C[C@H](O)C[C@H]3C(=O)N(C)C)c3cc(Cl)ccc32)c(OC(F)(F)F)c1 (single isomer, unassigned) [Example 89] |
| 102 | COc1ccc(S(=O)(=O)N2C(=O)C(c3cccc4c3OCO4)(N3C[C@H](O)C[C@H]3C(=O)N(C)C)c3cc(Br)ccc32)c(OC(F)(F)F)c1 (single isomer, unassigned) [Example 92] |
| 102 | COc1ccc(S(=O)(=O)N2C(=O)C(c3cc(OC)ccc3OC)(N3C[C@H](O)C[C@H]3C(=O)N(C)C)c3cc(Cl)ccc32)c(OC(F)(F)F)c1 (single isomer, unassigned) [Example 102] |
| 94 | C=Cc1ccccc1C1(N2C[C@H](O)C[C@H]2C(=O)N(C)C)C(=O)N(S(=O)(=O)c2ccc(OC)cc2OC(F)(F)F)c2ccc(Cl)cc21 (single isomer, unassigned) [Example 104] |
| 95 | COc1ccc(S(=O)(=O)N2C(=O)C(c3ccccc3C)(N3C[C@H](O)C[C@H]3C(=O)N(C)C)c3cc(Br)ccc32)c(OC(F)(F)F)c1 (single isomer, unassigned) [Example 105] |
| 102 | COc1ccc(S(=O)(=O)N2C(=O)C(c3cccc4c3OCO4)(N3C[C@H](O)C[C@H]3C(=O)N(C)C)c3cc(C)ccc32)c(OC(F)(F)F)c1 (single isomer, unassigned) [Example 107] |
| 67 | COc1ccc(S(=O)(=O)N2C(=O)C(c3cc(C)ccc3OC)(N3C[C@H](O)C[C@H]3C(=O)N(C)C)c3cc(Cl)cnc32)c(OC(F)(F)F)c1 (single isomer, unassigned) [Example 118] |
| 92 | COC(=O)[C@@H]1C[C@@H](O)CN1C1(c2cc(C)ccc2OC)C(=O)N(S(=O)(=O)c2ccc(OC)cc2OC(F)(F)F)c2ccc(Cl)cc21 (single isomer, unassigned) [Example 135] |
